Results from patent publication US20120231083A1, “SUSTAINED RELEASE CANNABINOID MEDICAMENTS” (The Board of Trustees of the University of Illinois, priority 2010, published 2012).
Read-outs that look alike come from different tables or passages of the source.

What was measured:
[1] = described in US 2007/0072939; not shown for sleep related disorders; cited from earlier work
rat model of sleep apnea = conditions: 10 mg/kg intraperitoneal, US 2004/0127572; cited from earlier work
sleep apnea patient = experiment: Oral dosing comparator 2: two immediate release dosages in succession (T0 and T3), AHI; assay type: in vivo, human; conditions: immediate release dosages at T0 and T3
Description: (§1) For the purpose of comparing oral medicaments (i.e., providing a comparator), a medicament is orally administered to one or more subjects. The various factors affecting ADME (absorption, distribution, metabolism, and excretion) of the drug are standardized. For example, the patient is optionally a fasted patient and optionally falls asleep within one of 15 minutes or 30 minutes of laying down for bed. The same subjects are used for comparing different medicaments (after providing an appropriate wash-out period).
(§2) Plasma levels of the drug (e.g. THC) and metabolites thereof (e.g. 11-OH-THC) are taken at regular intervals (e.g. every 30 minutes) during a treatment window (e.g. from T0 to T8hr).
(§3) Therapeutic responses are recorded throughout the entire treatment window.
(§4) Therapeutic responses are correlated with pharmacokinetic parameters of the drug or metabolites thereof. The pharmacokinetic parameters include one or more of: plasma concentration and AUC (at various times).
A second oral dosing comparator is provided by the method of Example 6, where a first immediate release dosage of cannabinoid (e.g. 2.5 mg MARINOL® soft gel) to a sleep apnea patient 30 minutes before bed at To. The patient is allowed to fall asleep and at a predetermined time, the subject is briefly woken to receive a second immediate release dosage of MARINOL® soft gel (e.g. at T3) and allowed to return to sleep.

subjects = experiment: Oral dosing comparator 1: single immediate release dosage, AHI; assay type: in vivo, human
Description: as §1, §2, §3, §4
An oral dosing “comparator” is provided by orally administering an immediate release dosage of cannabinoid (e.g. MARINOL® soft gel).

[2] = in vivo; cited from earlier work
[3] = cited from earlier work

Row | Compound | activity compared to the trans-(−)-enantiomer [1] | breathing cessation during non-REM (NREM) sleep (rat model of sleep apnea) | therapeutic window (sleep apnea patient; lower doses (e.g. 5 mg-20 mg)) | AHI (sleep apnea patient; subjects receiving 1 to 75 mg) | therapeutic window (subjects; lower doses (e.g. 5 mg-20 mg)) | AHI (subjects; subjects receiving 1 to 75 mg) | Side Effects, Digestive [2] | Side Effects, Musculoskeletal [2] | Side Effects, Skin and Appendages [2] | Side Effects, Special senses [2] | Side effects with co-administration ([3]; with antipyrine, barbiturates) | Side effects with co-administration ([3]; with atropine, scopolamine, antihistamines, other anticholinergic agents) | Side effects with co-administration ([3]; with barbiturates, benzodiazepines, ethanol, lithium, opioids, buspirone, antihistamines, muscle relaxants, other CNS depressants) | Side effects with co-administration ([3]; with disulfiram, person who smoked marijuana) | Side effects with co-administration ([3]; with fluoxetine 20 mg/day x 4 wks, person, smoking marijuana) | Side effects with co-administration ([3]; with theophylline, smoking of marijuana)
1 | CCCCCc1cc(O)c2c(c1)OC(C)(C)C1CCC(C)=CC21 (single isomer, unassigned) [trans-(+) enantiomer, trans-(+)-THC] | about 1% | – | – | – | – | – | – | – | – | – | – | – | – | – | – | –
2 | CCCCCc1cc(O)c2c(c1)OC(C)(C)[C@@H]1CCC(C)=C[C@@H]21 [Dronabinol, Delta-9-tetrahydrocannabinol] | – | reduced breathing cessation | generally extends through the seventh or eighth hour of sleep | improved | does not consistently extend through the seventh or eighth hour of sleep | improved | Diarrhea*, fecal incontinence. | Myalgias. | Flushing*. | Vision difficulties. | Decreased clearance of these agents, | super-additive tachycardia, drowsiness | Additive drowsiness and CNS depression | reversible hypomanic reaction was reported | became hypomanic after smoking marijuana; | Increased theophylline metabolism reported
